Reference: patent US6896895B2, “Carotenoid esters, carotenoid-enriched feeds, and methods of pigmenting foods and foodstuffs” (DSM IP Assets B.V., priority 2000, dated 2005)

How the values were obtained:
[1] = Carotenoid ester content in plasma, back skin and abdominal fat of broilers (HPLC); type: in vivo, broiler chickens (Ross 308, Ross 508)
Summary of the method: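 Ross 308/508 broilers, raised on low-carotenoid basal diet (<2 mg xanthophylls/kg) to day 15 or 22, then fed pigment-supplemented diet for three weeks; plasma sampled day 42, back skin and abdominal fat pooled per group at slaughter on day 44. Carotenoid esters quantified by normal-phase HPLC (0.5% acetone in n-hexane) calibrated with all-E ethyl β-apo-8′-carotenoate; Z-isomers corrected by factor 1.4.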

[2] = system: skin and shanks of broilers; assay: Reflectance colorimetry and visual classification of skin and shanks of broilers; type: in vivo, broiler chickens (Ross 308, Ross 508); design: key to Shanks Visual Classification / Skin Visual Classification: −; (+); +; ++ = good color; o = orange; details: for Shanks Chroma C*ab % of Controls / Shanks Color Hue h*ab % of Controls / Skin Chroma C*ab % of Controls / Skin Color Hue h*ab % of Controls / Shanks Chroma C*ab Value / Shanks Color Hue h*ab Value / Shanks Visual Classification / Skin Chroma C*ab Value / Skin Color Hue h*ab Value / Skin Visual Classification: dry carcasses
Summary of the method: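 Ross broilers were fed a low-carotenoid basal diet (<2 mg xanthophylls/kg), then received pigment-supplemented diet for three weeks and were slaughtered on day 44. Back-skin colour (mean of three points) and shank colour (single reading) were measured by Minolta chromameter (D65, 0°) and reported as CIE L*a*b*, h* and C*, averaged over ten birds (5 male, 5 female).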

[3] = average over doses, in relation to the controls (CAROPHYLL Yellow) of the same trial, Table 3
[4] = trial MC-11/99, 8.88 mg/kg feed
[5] = trial MC-11/99, 13.33 mg/kg feed

CC1=C(/C=C/C(C)=C/C=C/C(C)=C/C=C/C=C(C)/C=C/C=C(\C)C(=O)OC(C)C)C(C)(C)CCC1 [compound (17), isopropyl beta-apo-8′-carotenoate]
Analytical Content as Equivalent of Ethyl β-apo-8′-carotenoate Fat % [1, 3]: 88%
Analytical Content as Equivalent of Ethyl β-apo-8′-carotenoate Plasma % [1, 3]: 129%
Analytical Content as Equivalent of Ethyl β-apo-8′-carotenoate Skin % [1, 3]: 134%
concentrations determined as equivalents of the ethyl β-apo-8′-carotenoate, in the skin ([1]; in comparison to the other 12 tested carotenoid esters): substantially higher
Analytical Content as Equivalent of Ethyl β-apo-8′-carotenoate Fat ([1]; trial MC-02/99, 10 mg/kg feed): 1.8 mg/kg
Analytical Content as Equivalent of Ethyl β-apo-8′-carotenoate Plasma ([1]; trial MC-02/99, 10 mg/kg feed): 6.3 mg/kg
Analytical Content as Equivalent of Ethyl β-apo-8′-carotenoate Skin ([1]; trial MC-02/99, 10 mg/kg feed): 2.0 mg/kg
Analytical Content as Equivalent of Ethyl β-apo-8′-carotenoate Fat ([1]; trial MC-02/99, 20 mg/kg feed): 3.3 mg/kg
Analytical Content as Equivalent of Ethyl β-apo-8′-carotenoate Plasma ([1]; trial MC-02/99, 20 mg/kg feed): 13.4 mg/kg
Analytical Content as Equivalent of Ethyl β-apo-8′-carotenoate Skin ([1]; trial MC-02/99, 20 mg/kg feed): 4.1 mg/kg
Analytical Content as Equivalent of Ethyl β-apo-8′-carotenoate Fat [1, 4]: 1.2 mg/kg
Analytical Content as Equivalent of Ethyl β-apo-8′-carotenoate Plasma [1, 4]: 6.0 mg/kg
Analytical Content as Equivalent of Ethyl β-apo-8′-carotenoate Skin [1, 4]: 1.6 mg/kg
Analytical Content as Equivalent of Ethyl β-apo-8′-carotenoate Fat [1, 5]: 1.9 mg/kg
Analytical Content as Equivalent of Ethyl β-apo-8′-carotenoate Plasma [1, 5]: 8.6 mg/kg
Analytical Content as Equivalent of Ethyl β-apo-8′-carotenoate Skin [1, 5]: 2.6 mg/kg
Analytical Content as Equivalent of Ethyl β-apo-8′-carotenoate Fat ([1]; trial MC-11/99, 20 mg/kg feed): 2.9 mg/kg
Analytical Content as Equivalent of Ethyl β-apo-8′-carotenoate Plasma ([1]; trial MC-11/99, 20 mg/kg feed): 13.3 mg/kg
Analytical Content as Equivalent of Ethyl β-apo-8′-carotenoate Skin ([1]; trial MC-11/99, 20 mg/kg feed): 3.7 mg/kg
Analytical Content as Equivalent of Ethyl β-apo-8′-carotenoate Fat ([1]; trial MC-11/99, 30 mg/kg feed): 3.4 mg/kg
Analytical Content as Equivalent of Ethyl β-apo-8′-carotenoate Plasma ([1]; trial MC-11/99, 30 mg/kg feed): 18.3 mg/kg
Analytical Content as Equivalent of Ethyl β-apo-8′-carotenoate Skin ([1]; trial MC-11/99, 30 mg/kg feed): 6.1 mg/kg
Analytical Content as Equivalent of Ethyl β-apo-8′-carotenoate Fat ([1]; trial MC-11/99, 45 mg/kg feed): 6.4 mg/kg
Analytical Content as Equivalent of Ethyl β-apo-8′-carotenoate Plasma ([1]; trial MC-11/99, 45 mg/kg feed): 30.6 mg/kg
Analytical Content as Equivalent of Ethyl β-apo-8′-carotenoate Skin ([1]; trial MC-11/99, 45 mg/kg feed): 9.0 mg/kg
Analytical Content as Equivalent of Ethyl β-apo-8′-carotenoate Fat ([1]; trial MC-24/98, 15 mg/kg feed): 2.3 mg/kg
Analytical Content as Equivalent of Ethyl β-apo-8′-carotenoate Plasma ([1]; trial MC-24/98, 15 mg/kg feed): 10.0 mg/kg
Analytical Content as Equivalent of Ethyl β-apo-8′-carotenoate Skin ([1]; trial MC-24/98, 15 mg/kg feed): 2.5 mg/kg
Analytical Content as Equivalent of Ethyl β-apo-8′-carotenoate Fat ([1]; trial MC-24/98, 30 mg/kg feed): 4.5 mg/kg
Analytical Content as Equivalent of Ethyl β-apo-8′-carotenoate Plasma ([1]; trial MC-24/98, 30 mg/kg feed): 19.9 mg/kg
Analytical Content as Equivalent of Ethyl β-apo-8′-carotenoate Skin ([1]; trial MC-24/98, 30 mg/kg feed): 5.6 mg/kg
Shanks Chroma C*ab % of Controls ([2]; average over doses, Table 5): 115%
Shanks Color Hue h*ab % of Controls ([2]; average over doses, Table 5): 99%
Skin Chroma C*ab % of Controls ([2]; average over doses, Table 5): 113%
Skin Color Hue h*ab % of Controls ([2]; average over doses, Table 5): 102%
Shanks Chroma C*ab % of Controls [2, 5]: 97%
Shanks Chroma C*ab Value [2, 5]: 70
Shanks Color Hue h*ab % of Controls [2, 5]: 99%
Shanks Color Hue h*ab Value [2, 5]: 84
Shanks Visual Classification [2, 5]: (+)
Skin Chroma C*ab % of Controls [2, 5]: 116%
Skin Chroma C*ab Value [2, 5]: 29
Skin Color Hue h*ab % of Controls [2, 5]: 105%
Skin Color Hue h*ab Value [2, 5]: 77
Skin Visual Classification [2, 5]: (+)
Shanks Chroma C*ab % of Controls ([2]; trial MC-11/99, 20 mg/kg feed): 125%
Shanks Chroma C*ab Value ([2]; trial MC-11/99, 20 mg/kg feed): 59
Shanks Color Hue h*ab % of Controls ([2]; trial MC-11/99, 20 mg/kg feed): 103%
Shanks Color Hue h*ab Value ([2]; trial MC-11/99, 20 mg/kg feed): 87
Shanks Visual Classification ([2]; trial MC-11/99, 20 mg/kg feed): +
Skin Chroma C*ab % of Controls ([2]; trial MC-11/99, 20 mg/kg feed): 106%
Skin Chroma C*ab Value ([2]; trial MC-11/99, 20 mg/kg feed): 33
Skin Color Hue h*ab % of Controls ([2]; trial MC-11/99, 20 mg/kg feed): 100%
Skin Color Hue h*ab Value ([2]; trial MC-11/99, 20 mg/kg feed): 78
Skin Visual Classification ([2]; trial MC-11/99, 20 mg/kg feed): +
Shanks Chroma C*ab % of Controls ([2]; trial MC-11/99, 30 mg/kg feed): 108%
Shanks Chroma C*ab Value ([2]; trial MC-11/99, 30 mg/kg feed): 65
Shanks Color Hue h*ab % of Controls ([2]; trial MC-11/99, 30 mg/kg feed): 97%
Shanks Color Hue h*ab Value ([2]; trial MC-11/99, 30 mg/kg feed): 83
Shanks Visual Classification ([2]; trial MC-11/99, 30 mg/kg feed): +
Skin Chroma C*ab % of Controls ([2]; trial MC-11/99, 30 mg/kg feed): 119%
Skin Chroma C*ab Value ([2]; trial MC-11/99, 30 mg/kg feed): 40
Skin Color Hue h*ab % of Controls ([2]; trial MC-11/99, 30 mg/kg feed): 102%
Skin Color Hue h*ab Value ([2]; trial MC-11/99, 30 mg/kg feed): 79
Skin Visual Classification ([2]; trial MC-11/99, 30 mg/kg feed): +
Shanks Chroma C*ab % of Controls ([2]; trial MC-11/99, 45 mg/kg feed): 108%
Shanks Chroma C*ab Value ([2]; trial MC-11/99, 45 mg/kg feed): 71
Shanks Color Hue h*ab % of Controls ([2]; trial MC-11/99, 45 mg/kg feed): 101%
Shanks Color Hue h*ab Value ([2]; trial MC-11/99, 45 mg/kg feed): 84
Shanks Visual Classification ([2]; trial MC-11/99, 45 mg/kg feed): ++(o)
Skin Chroma C*ab % of Controls ([2]; trial MC-11/99, 45 mg/kg feed): 105%
Skin Chroma C*ab Value ([2]; trial MC-11/99, 45 mg/kg feed): 44
Skin Color Hue h*ab % of Controls ([2]; trial MC-11/99, 45 mg/kg feed): 103%
Skin Color Hue h*ab Value ([2]; trial MC-11/99, 45 mg/kg feed): 79
Skin Visual Classification ([2]; trial MC-11/99, 45 mg/kg feed): ++
Shanks Chroma C*ab % of Controls ([2]; trial MC-24/98, 30 mg/kg feed): 137%
Shanks Chroma C*ab Value ([2]; trial MC-24/98, 30 mg/kg feed): 71
Shanks Color Hue h*ab % of Controls ([2]; trial MC-24/98, 30 mg/kg feed): 93%
Shanks Color Hue h*ab Value ([2]; trial MC-24/98, 30 mg/kg feed): 80
Shanks Visual Classification ([2]; trial MC-24/98, 30 mg/kg feed): +
Skin Chroma C*ab % of Controls ([2]; trial MC-24/98, 30 mg/kg feed): 119%
Skin Chroma C*ab Value ([2]; trial MC-24/98, 30 mg/kg feed): 39
Skin Color Hue h*ab % of Controls ([2]; trial MC-24/98, 30 mg/kg feed): 102%
Skin Color Hue h*ab Value ([2]; trial MC-24/98, 30 mg/kg feed): 82
Skin Visual Classification ([2]; trial MC-24/98, 30 mg/kg feed): +
chroma C*a*b* values in the skin and in the shanks ([2]; versus the control): substantially enhanced
color hue h*a*b* in the skin and in the shanks ([2]; versus the control): not significantly changed
effectiveness in terms of concentration in the skin, and color intensity (chroma C*a*b*) in the skin and shanks ([2]; versus the control): significantly more effective
